Common to all, as to assay type: ADME, organism-based
A short description of series [1]: AUC in rat at 5 mg/kg, iv. Also on record: dose 5 mg/kg, route intravenous. The note with it: plasma.
Series [2] in a line: Clearance in rat at 5 mg/kg, iv. Particulars: in vivo. Also on record: dose 5 mg/kg, route intravenous.
The nature of series [3]: Half life in rat at 5 mg/kg, iv. The note with it: in vivo. Also on record: dose 5 mg/kg, route intravenous.
The nature of series [4]: Cmax in rat at 30 mg/kg, po. Also on record: dose 30 mg/kg, route oral. Particulars: in vivo.
Series [5] can be described thus: AUC in rat at 30 mg/kg, po. Particulars: plasma. Also on record: dose 30 mg/kg, route oral.
Series [6] in a line: Half life in rat at 30 mg/kg, po. Also on record: dose 30 mg/kg, route oral. The note with it: in vivo.
Series [7] in a line: Oral bioavailability in rat at 30 mg/kg. Particulars: in vivo.
Series [8] can be described thus: Cmax in rat at 5 mg/kg, iv. Particulars: in vivo. Also on record: dose 5 mg/kg, route intravenous.

For the compound `CC(=O)N1CCc2c(nc(C)n2[C@@H]2C[C@H]3CC[C@@H](C2)N3CCCN(C(=O)Nc2ccc(C(F)(F)F)cc2)c2ccccc2)C1`, the AUC (as a rule, the area under the concentration-time curve, a measure of exposure) came to 2890 ng·h/mL in series [1] and 8990 ng·h/mL in series [5]. Moreover, in series [2], the clearance (usually the volume of plasma or blood freed of the substance per unit of time) turned out to be 28.8 mL/min/kg. For the same compound, the results for the half-life in series [3] and in series [6] were 10.7 h and 7.2 h, respectively. The Cmax (commonly the maximum level reached in the sampled fluid or tissue) is 540 ng/mL in series [4] and 860 ng/mL in series [8]. The bioavailability (as a rule, dose-corrected exposure relative to a reference, in per cent) in series [7] was 52%.

Source of the values: ChEMBL document CHEMBL1143192, “Anti-HIV-1 entry optimization of novel imidazopiperidine-tropane CCR5 antagonists” (Bioorg Med Chem Lett, 2008).
